Patent publication US6800625B2, “Substituted 2,4-dihydro-pyrrolo[3,4-b]quinolin-9-one derivatives useful as phosphodiesterase inhibitors” (Janssen Pharmaceutica N.V., priority 2002, dated 2004)

Tests used:
PDEV = PDEV (UniProt O76074); assay: Cyclic nucleotide phosphodiesterase (PDE) assay, measurement of inhibition of PDEV; type: biochemical, rabbit or human; conditions: PDEV isolated from rabbit and human tissues; 1 μM cGMP, 10% DMSO, 30° C., 30 minutes
Experimental: Cyclic Nucleotide Phosphodiesterase (PDE) Assay
PDEV was isolated from rabbit and human tissues according to the protocol described by Boolell et al. (Boolell, M., Allen, M. J., Ballard, S. A., Ge[o-Attee, S., Muirhead, G. J., Naylor, A. M., Osterdoh, I. H., and Gingell, C) in International Journal of Impotence Research 1996 8, 47-52 with minor modifications.
Briefly, rabbit or human tissues were homogenized in an ice-cold buffer solution containing 20 mM HEPES (pH 7.2), 0.25M sucrose, 1 mM EDTA, and 1 mM phenylmethylsulphonyl fluoride (PMSF). The homogenates were centrifuged at 100,000 g for 60 minutes at 4° C. The supernatant was filtered through […] filter and loaded on a Pharmacia Mono Q anion exchange column (1 ml bed volume) that was equilibrated with 20 mM HEPES, 1 mM EDTA and 0.5 mM PMSF. After washing out unbound proteins, the enzymes were eluted with a linear gradient of 100-600 mM NaCl in the same buffer (35 to 50 ml total, depending on the tissue. Enzymes from the skeletal muscle, corpus cavernosum, retina, heart and platelet were eluted with 35, 40, 45, 50, and 50 ml respectively.) The column was run at a flow rate of 1 ml/min and 1 ml fractions were collected. […]
The assays were adapted to a 96-well format. […] An aliquot of 200 μl was taken and counted by liquid scintillation. PDE activity was expressed as pmol cyclic nucleotide hydrolyzed/min/ml of enzyme preparation. […]

men who suffer from ED = conditions: cited from earlier work

Structure (SMILES) | IC50 (PDEV) | improved sexual function, share of men (men who suffer from ED; men who suffer from ED of psychogenic or organic etiology, clinical studies) | improved erections, share of patients (men who suffer from ED; patients who had undergone a radical prostatectomy, versus 15% on placebo) | undesirable side effects (men who suffer from ED; use of sildenafil, result from non-selective effects on a variety of tissues)
O=c1c2ccccc2[nH]c2c(-c3ccc4c(c3)OCO4)n(Cc3ccccc3)cc12 [Compound 2] | 299 nM | – | – | –
O=C1c2ccccc2NC23OC12CN(Cc1ccccc1)C3c1ccc2c(c1)OCO2 (centres unmarked) [Compound 1] | 545 nM | – | – | –
CCCc1nn(C)c2c(=O)[nH]c(-c3cc(S(=O)(=O)N4CCN(C)CC4)ccc3OCC)nc12 [sildenafil, 5-[2-ethoxy-5-(4-methylpiperazin-1-ylsulphonyl)phenyl]-1-methyl-3-n-propyl-6,7-dihydro-1H-pyrazolo[4,3-d]pyrimidin-7-one] | – | about 70% | 43% | headache, flushing and disrupted color vision
